Assays:
[1] = Crushing strength of compressed pure deramciclane-fumarate powder; type: physicochemical; settings: 300 mg powder, die cavity of 10 mm diameter, eccentric press, compression force 5-40 kN
From the text: Due to the weak cohesion characteristics of deramciclane-fumarate on compression of the particles of the active ingredient acceptable tablet strength can not be obtained.

Water solubility = type: physicochemical

CN(C)CCOC1(c2ccccc2)CC2CCC1(C)C2(C)C.O=C(O)/C=C/C(=O)O [deramciclane-fumarate, (1R,2S,4R)-(−)-2-dimethylaminoethoxy-2-phenyl-1,7,7-trimethyl-bicyclo[2.2.1]heptane-2-(E)-butenedioate (1:1)]
crushing strength of the tablets [1]: ≤ 10 N
water solubility (Water solubility): low water solubility
